Earlier results as cited in patent US20130096134A1, “HETEROCYCLIC COMPOUNDS AND THEIR USES” (Amgen Inc., priority 2010, published 2013).

Tests used:
[1] = tested on: mouse model of rheumatoid arthritis; details: in vivo
[2] = tested on: model of systemic lupus erythematosis; details: in vivo
p110δ = target: T1, p110δ (Homo sapiens, UniProt O00329)
T1 sequence (O00329 1-1044): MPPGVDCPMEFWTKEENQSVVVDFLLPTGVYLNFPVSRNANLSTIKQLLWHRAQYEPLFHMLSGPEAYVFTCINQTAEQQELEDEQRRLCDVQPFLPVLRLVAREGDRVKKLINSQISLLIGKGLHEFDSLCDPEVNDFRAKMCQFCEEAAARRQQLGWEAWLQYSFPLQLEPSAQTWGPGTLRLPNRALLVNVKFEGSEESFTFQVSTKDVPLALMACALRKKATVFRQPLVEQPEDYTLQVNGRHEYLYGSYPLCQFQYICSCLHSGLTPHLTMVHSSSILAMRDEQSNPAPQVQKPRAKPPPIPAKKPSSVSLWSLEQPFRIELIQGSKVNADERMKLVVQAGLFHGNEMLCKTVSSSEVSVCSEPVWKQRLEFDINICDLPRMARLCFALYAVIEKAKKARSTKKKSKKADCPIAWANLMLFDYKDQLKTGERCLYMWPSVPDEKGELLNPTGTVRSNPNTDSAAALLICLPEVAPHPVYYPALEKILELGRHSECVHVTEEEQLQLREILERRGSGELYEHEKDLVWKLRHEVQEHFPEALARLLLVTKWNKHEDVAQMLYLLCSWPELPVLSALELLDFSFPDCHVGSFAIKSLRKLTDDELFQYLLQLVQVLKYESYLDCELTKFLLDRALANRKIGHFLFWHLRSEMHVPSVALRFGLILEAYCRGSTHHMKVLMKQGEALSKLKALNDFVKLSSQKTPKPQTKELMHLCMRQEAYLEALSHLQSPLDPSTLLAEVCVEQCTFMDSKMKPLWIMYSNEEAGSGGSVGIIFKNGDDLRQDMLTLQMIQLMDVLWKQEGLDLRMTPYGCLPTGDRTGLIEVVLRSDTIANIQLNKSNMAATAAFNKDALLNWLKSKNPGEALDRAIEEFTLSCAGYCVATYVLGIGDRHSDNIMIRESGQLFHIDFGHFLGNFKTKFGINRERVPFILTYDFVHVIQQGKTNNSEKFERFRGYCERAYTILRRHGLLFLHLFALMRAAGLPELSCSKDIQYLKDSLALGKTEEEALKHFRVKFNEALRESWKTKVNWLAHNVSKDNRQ

murine model of asthma = details: ovalbumin-induced airway inflammation

Compound | efficacy in a mouse model of rheumatoid arthritis [1] | onset of disease in a model of systemic lupus erythematosis [2] | activity against any protein kinases tested (protein kinases) | inhibition of p110δ (p110δ) | inflammation and disease in a murine model of asthma (murine model of asthma)
O=C1NC(=O)/C(=C\c2ccc3nccnc3c2)S1 [AS 605240] | efficacious | delay onset of disease |  |  | 
Cc1ccccc1-n1c(Cn2cnc3c(N)ncnc32)nc2cccc(C)c2c1=O [IC87114] |  |  | no activity | high nanomolar range (triple digit) | significantly ameliorate inflammation and disease
